Experimental data reported in PMC8155022 (Scientific Reports, 2021).

How the values were obtained:
kappa (KOP) = molecular target: T1, kappa (KOP) (Rattus norvegicus, UniProt P34975); experiment: Cerep panel; assay type: binding
T1 construct: purchased Cerep (receptors, ion channels, transporters); Eurofins Panlabs (kinases)
Experimental: (§1) A panel of 52 different receptors, ion channels and transporters was tested by Cerep, Inc. (Redmond, WA).

5-HT1A (h) = molecular target: T2, 5-HT1A (h) (Homo sapiens, UniProt P08908); experiment: Cerep panel; assay type: binding
T2 construct: purchased Cerep (receptors, ion channels, transporters); Eurofins Panlabs (kinases)
Experimental: as §1

Y2 (h) = molecular target: T3, Y2 (h) (Homo sapiens, UniProt P49146); experiment: Cerep panel; assay type: binding
T3 construct: purchased Cerep (receptors, ion channels, transporters); Eurofins Panlabs (kinases)
Experimental: as §1

PKA(h) = molecular target: T4, PKA(h) (Homo sapiens, UniProt P17612); experiment: Kinase panel; assay type: biochemical
T4 construct: purchased Cerep (receptors, ion channels, transporters); Eurofins Panlabs (kinases)
Experimental: (§2) Kinase selectivity was conducted by Eurofins Panlabs Inc (St Charles, MO).

SAPK3(h) = molecular target: T5, SAPK3(h) (Homo sapiens, UniProt P53778); experiment: Kinase panel; assay type: biochemical
T5 construct: purchased Cerep (receptors, ion channels, transporters); Eurofins Panlabs (kinases)
Experimental: as §2

CCKA = CCKA (Homo sapiens, UniProt P32238); experiment: GPCR panel, cAMP or calcium FLIPR assays; assay type: cell-based
Experimental: (§3) 28 GPCRs were evaluated through cAMP or calcium FLIPR assays[67].

5HT2B = 5HT2B (Homo sapiens, UniProt P41595); experiment: GPCR panel, cAMP or calcium FLIPR assays; assay type: cell-based
Experimental: as §3

IR(h) = molecular target: T6, IR(h) (Homo sapiens, UniProt P06213); experiment: Kinase panel; assay type: biochemical
T6 construct: purchased Cerep (receptors, ion channels, transporters); Eurofins Panlabs (kinases)
Experimental: as §2

MT1 (h) = molecular target: T7, MT1 (h) (Homo sapiens, UniProt P48039); experiment: Cerep panel; assay type: binding
T7 construct: purchased Cerep (receptors, ion channels, transporters); Eurofins Panlabs (kinases)
Experimental: as §1

D2S (h) = molecular target: T8, D2S (h) (Homo sapiens, UniProt P14416); experiment: Cerep panel; assay type: binding
T8 construct: purchased Cerep (receptors, ion channels, transporters); Eurofins Panlabs (kinases)
Experimental: as §1

ADRA2B - AG = ADRA2B - AG (Homo sapiens, UniProt P18089); experiment: GPCR panel, cAMP or calcium FLIPR assays; assay type: cell-based
Experimental: as §3

RARα = molecular target: T9, RARα (Homo sapiens, UniProt P10276); experiment: nuclear receptor cellular GAL4 reporter assay; assay type: cell-based; conditions: agonist and antagonist mode; read-out: potency in agonist and antagonist mode
T9 construct: expressed in transfected cells

cSRC(h) = molecular target: T10, cSRC(h) (Homo sapiens, UniProt P12931); experiment: Kinase panel; assay type: biochemical
T10 construct: purchased Cerep (receptors, ion channels, transporters); Eurofins Panlabs (kinases)
Experimental: as §2

NK3 (h) = molecular target: T11, NK3 (h) (Homo sapiens, UniProt P29371); experiment: Cerep panel; assay type: binding
T11 construct: purchased Cerep (receptors, ion channels, transporters); Eurofins Panlabs (kinases)
Experimental: as §1

plasma protein binding = assay type: in vitro ADME; conditions: human
ERRγ = ERRγ (Homo sapiens, UniProt P62508); experiment: biochemical TR-FRET assay; conditions: agonist and antagonist mode; read-out: potency in agonist and antagonist mode
Cl- channel = experiment: Cerep panel; assay type: binding
Experimental: as §1

NE-T transporter (h) = molecular target: T12, NE-T transporter (h) (Homo sapiens, UniProt P23975); experiment: Cerep panel; assay type: binding
T12 construct: purchased Cerep (receptors, ion channels, transporters); Eurofins Panlabs (kinases)
Experimental: as §1

IKKβ(h) = molecular target: T13, IKKβ(h) (Homo sapiens, UniProt O14920); experiment: Kinase panel; assay type: biochemical
T13 construct: purchased Cerep (receptors, ion channels, transporters); Eurofins Panlabs (kinases)
Experimental: as §2

[1] = modeled plasma exposure in the CIA model; assay type: in vivo, mouse
A3 [2] = molecular target: T14, A3 (Homo sapiens, UniProt P0DMS8); experiment: GPCR panel, cAMP or calcium FLIPR assays; assay type: cell-based
T14 sequence (P0DMS8 1-318): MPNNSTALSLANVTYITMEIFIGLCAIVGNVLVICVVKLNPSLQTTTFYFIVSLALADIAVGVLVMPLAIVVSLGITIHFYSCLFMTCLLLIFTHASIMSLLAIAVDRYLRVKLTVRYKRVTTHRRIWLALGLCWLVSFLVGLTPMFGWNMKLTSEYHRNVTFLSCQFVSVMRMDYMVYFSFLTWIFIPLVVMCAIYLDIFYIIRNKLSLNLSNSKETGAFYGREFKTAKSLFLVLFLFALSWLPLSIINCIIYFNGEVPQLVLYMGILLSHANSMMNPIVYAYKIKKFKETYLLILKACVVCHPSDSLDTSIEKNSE
Experimental: as §3

A3 [3] = molecular target: T14, A3; experiment: follow-up functional study; assay type: cell-based; conditions: read-out: IC50 in follow-up functional studies

Chain of ADRA2B - AG (P18089 whole entry, the tested form may be a part): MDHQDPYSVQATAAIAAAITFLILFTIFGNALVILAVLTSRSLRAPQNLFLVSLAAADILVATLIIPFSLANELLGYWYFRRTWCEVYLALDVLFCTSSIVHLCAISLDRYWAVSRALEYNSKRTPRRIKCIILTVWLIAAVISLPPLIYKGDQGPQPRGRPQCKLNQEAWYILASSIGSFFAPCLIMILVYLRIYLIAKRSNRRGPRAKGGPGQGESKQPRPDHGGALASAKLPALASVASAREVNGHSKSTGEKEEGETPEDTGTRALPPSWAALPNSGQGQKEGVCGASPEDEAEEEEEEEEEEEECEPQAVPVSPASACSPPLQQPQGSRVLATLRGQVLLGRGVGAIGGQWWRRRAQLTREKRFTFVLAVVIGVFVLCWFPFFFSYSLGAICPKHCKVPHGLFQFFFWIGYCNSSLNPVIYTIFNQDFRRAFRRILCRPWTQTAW
T12 sequence (P23975 whole entry): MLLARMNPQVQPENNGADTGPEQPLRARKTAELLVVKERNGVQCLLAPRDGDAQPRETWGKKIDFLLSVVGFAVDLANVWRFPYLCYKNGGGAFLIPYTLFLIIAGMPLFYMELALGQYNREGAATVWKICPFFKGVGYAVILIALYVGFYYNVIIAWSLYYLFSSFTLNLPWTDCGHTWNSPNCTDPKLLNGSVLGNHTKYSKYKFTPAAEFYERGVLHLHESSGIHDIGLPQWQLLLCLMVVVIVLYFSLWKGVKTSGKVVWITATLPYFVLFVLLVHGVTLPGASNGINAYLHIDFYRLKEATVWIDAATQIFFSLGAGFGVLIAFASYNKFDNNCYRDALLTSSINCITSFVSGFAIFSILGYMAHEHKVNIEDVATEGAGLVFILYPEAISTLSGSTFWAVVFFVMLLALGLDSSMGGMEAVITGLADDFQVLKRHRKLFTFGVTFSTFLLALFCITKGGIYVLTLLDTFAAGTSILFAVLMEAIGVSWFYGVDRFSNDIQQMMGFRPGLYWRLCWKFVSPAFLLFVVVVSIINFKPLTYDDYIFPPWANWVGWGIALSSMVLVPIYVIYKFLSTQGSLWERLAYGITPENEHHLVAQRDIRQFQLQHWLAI
Chain of CCKA (P32238 whole entry): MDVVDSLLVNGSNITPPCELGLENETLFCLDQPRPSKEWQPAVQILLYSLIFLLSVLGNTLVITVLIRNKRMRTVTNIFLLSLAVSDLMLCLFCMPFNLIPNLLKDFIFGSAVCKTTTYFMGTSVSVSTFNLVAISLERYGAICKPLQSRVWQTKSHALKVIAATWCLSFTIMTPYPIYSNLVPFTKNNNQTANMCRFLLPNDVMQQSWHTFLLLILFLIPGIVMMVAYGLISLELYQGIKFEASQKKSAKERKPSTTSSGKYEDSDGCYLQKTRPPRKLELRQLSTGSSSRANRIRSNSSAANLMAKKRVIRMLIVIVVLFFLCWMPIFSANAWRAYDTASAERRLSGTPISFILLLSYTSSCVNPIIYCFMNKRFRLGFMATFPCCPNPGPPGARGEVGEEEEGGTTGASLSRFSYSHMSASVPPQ
T3 sequence (P49146 whole entry): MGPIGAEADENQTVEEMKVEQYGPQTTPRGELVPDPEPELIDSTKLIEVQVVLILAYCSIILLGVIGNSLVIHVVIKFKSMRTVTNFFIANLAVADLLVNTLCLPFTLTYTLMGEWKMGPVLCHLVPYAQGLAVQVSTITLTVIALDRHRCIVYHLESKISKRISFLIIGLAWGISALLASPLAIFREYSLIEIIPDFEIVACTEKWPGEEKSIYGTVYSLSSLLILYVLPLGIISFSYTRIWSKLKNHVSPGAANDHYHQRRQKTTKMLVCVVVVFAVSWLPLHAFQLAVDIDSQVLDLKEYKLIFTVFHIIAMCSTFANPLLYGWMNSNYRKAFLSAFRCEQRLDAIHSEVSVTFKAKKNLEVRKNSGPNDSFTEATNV
T2 sequence (P08908 whole entry): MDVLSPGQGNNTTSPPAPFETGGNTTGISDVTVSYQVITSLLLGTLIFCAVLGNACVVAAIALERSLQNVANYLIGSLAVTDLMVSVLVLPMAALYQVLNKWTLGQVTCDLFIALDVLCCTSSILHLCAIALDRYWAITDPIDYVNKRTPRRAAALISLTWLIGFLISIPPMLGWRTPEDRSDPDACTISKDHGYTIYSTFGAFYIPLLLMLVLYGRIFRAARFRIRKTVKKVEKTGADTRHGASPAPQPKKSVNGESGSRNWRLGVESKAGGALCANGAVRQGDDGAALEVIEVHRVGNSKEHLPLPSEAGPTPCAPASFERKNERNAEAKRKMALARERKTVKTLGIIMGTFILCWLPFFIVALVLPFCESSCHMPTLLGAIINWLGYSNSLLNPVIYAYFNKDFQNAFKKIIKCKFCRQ
T8 sequence (P14416 1-414 isoform P14416-2): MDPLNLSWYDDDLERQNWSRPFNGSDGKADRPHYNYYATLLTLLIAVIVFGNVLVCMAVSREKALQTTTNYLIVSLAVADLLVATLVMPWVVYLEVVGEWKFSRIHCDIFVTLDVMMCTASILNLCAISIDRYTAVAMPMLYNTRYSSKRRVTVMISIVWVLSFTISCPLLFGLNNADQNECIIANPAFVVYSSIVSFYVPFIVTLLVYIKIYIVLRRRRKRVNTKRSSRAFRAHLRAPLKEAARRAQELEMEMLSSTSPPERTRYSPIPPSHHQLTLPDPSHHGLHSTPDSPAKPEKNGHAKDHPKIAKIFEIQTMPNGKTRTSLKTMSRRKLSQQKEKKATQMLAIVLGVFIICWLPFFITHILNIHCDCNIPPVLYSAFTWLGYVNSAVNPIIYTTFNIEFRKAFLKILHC
T6 sequence (P06213 28-1382): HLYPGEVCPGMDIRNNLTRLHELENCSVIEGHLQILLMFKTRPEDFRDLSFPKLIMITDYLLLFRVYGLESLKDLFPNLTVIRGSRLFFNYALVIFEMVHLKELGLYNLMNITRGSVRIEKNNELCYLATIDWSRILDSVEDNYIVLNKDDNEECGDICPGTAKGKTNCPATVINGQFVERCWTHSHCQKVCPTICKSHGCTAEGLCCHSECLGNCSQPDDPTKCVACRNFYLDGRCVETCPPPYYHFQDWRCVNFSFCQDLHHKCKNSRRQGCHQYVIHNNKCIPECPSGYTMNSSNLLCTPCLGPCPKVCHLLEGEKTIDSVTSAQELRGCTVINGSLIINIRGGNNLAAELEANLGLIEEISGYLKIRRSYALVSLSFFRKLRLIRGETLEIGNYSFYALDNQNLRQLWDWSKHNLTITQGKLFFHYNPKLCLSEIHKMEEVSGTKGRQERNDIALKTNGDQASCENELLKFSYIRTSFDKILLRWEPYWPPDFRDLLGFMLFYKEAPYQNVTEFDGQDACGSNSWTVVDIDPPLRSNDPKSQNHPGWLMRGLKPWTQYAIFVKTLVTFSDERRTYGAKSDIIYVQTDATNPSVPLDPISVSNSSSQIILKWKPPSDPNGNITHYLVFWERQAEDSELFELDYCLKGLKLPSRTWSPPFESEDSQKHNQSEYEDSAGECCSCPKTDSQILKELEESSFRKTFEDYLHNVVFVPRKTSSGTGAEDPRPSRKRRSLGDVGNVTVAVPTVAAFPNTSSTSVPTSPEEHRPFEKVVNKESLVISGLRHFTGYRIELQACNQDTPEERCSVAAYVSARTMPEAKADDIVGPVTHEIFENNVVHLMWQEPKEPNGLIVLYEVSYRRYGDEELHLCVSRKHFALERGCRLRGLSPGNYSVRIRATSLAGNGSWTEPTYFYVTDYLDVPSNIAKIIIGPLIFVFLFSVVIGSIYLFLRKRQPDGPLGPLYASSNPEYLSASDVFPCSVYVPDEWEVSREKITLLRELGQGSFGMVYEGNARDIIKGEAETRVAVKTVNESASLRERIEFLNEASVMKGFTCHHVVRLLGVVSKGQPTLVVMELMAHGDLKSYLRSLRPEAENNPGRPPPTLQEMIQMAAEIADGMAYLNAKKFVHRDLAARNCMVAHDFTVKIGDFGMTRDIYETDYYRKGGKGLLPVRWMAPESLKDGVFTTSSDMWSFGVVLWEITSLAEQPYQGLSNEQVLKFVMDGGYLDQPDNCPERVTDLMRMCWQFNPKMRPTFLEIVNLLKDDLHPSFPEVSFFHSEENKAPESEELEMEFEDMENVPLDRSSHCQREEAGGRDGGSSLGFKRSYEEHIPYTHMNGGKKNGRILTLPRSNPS
Chain of 5HT2B (P41595 whole entry, species assumed): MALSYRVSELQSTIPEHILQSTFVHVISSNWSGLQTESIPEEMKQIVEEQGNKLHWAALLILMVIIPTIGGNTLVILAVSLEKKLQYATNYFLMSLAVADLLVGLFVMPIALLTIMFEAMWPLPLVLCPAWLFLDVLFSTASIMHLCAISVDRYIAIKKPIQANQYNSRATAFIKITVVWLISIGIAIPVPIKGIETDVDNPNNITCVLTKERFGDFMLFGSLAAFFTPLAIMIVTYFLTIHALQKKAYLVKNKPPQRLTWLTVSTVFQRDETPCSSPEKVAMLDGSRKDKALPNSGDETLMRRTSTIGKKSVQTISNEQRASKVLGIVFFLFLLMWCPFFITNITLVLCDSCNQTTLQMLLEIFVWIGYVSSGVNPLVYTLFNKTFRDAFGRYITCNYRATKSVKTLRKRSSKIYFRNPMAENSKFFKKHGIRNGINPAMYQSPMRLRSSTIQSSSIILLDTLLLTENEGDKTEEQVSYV
T5 sequence (P53778 whole entry): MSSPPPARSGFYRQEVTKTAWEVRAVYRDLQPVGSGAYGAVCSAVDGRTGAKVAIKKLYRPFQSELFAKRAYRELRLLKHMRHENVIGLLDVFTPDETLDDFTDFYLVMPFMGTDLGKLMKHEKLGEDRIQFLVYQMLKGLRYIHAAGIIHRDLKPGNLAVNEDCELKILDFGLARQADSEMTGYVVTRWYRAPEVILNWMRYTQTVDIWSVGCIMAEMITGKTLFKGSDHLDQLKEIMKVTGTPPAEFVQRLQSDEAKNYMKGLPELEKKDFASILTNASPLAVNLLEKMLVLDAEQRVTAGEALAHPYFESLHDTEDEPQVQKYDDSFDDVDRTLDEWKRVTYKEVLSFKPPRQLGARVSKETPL

SMILES: CC1CCCN1C(=O)c1nc(C(=O)NCC(C)(C)O)sc1-c1ccc(C(O)(C(F)(F)F)C(F)(F)F)c(Cl)c1Cl (stereo not drawn) [JNJ-61803534]
- inhibition at 1 µM (kappa (KOP)): < 10%
- inhibition at 10 µM (kappa (KOP)): < 10%
- inhibition at 1 µM (5-HT1A (h)): < 10%
- inhibition at 10 µM (5-HT1A (h)): < 10%
- inhibition at 1 µM (Y2 (h)): < 10%
- inhibition at 10 µM (Y2 (h)): < 10%
- activity at 1 µM (PKA(h)): 85%
- activity at 10 µM (PKA(h)): 88%
- activity at 1 µM (SAPK3(h)): 106%
- activity at 10 µM (SAPK3(h)): 112%
- EC50 (CCKA; agonist): > 10 µM
- IC50 (CCKA; antagonist): > 10 µM
- EC50 (5HT2B; agonist): > 10 µM
- IC50 (5HT2B; antagonist): > 10 µM
- activity at 1 µM (IR(h)): 92%
- activity at 10 µM (IR(h)): 89%
- inhibition at 1 µM (MT1 (h)): < 10%
- inhibition at 10 µM (MT1 (h)): 20.4%
- inhibition at 1 µM (D2S (h)): < 10%
- inhibition at 10 µM (D2S (h)): < 10%
- EC50 (ADRA2B - AG; agonist): > 12.5 µM
- IC50 (ADRA2B - AG; antagonist): > 12.5 µM
- IC50 (RARα): > 1.5 µM
- activity at 1 µM (cSRC(h)): 78%
- activity at 10 µM (cSRC(h)): 80%
- inhibition at 1 µM (NK3 (h)): < 10%
- inhibition at 10 µM (NK3 (h)): < 10%
- fraction unbound (plasma protein binding): 0.011
- IC50 (ERRγ): > 10 µM
- % Inhibition at 1 µM (Cl- channel; 1 µM): 10.5%
- % Inhibition at 10 µM (Cl- channel; 10 µM): 86.4%
- inhibition at 1 µM (NE-T transporter (h)): < 10%
- inhibition at 10 µM (NE-T transporter (h)): < 10%
- activity at 1 µM (IKKβ(h)): 75%
- activity at 10 µM (IKKβ(h)): 138%
- Caverage ([1]; 3 mg/kg BID): 702 nM
- Ctrough ([1]; 3 mg/kg BID): 74 nM
- Caverage ([1]; 10 mg/kg BID): 2032 nM
- Ctrough ([1]; 10 mg/kg BID): 211 nM
- Caverage ([1]; 30 mg/kg BID): 6909 nM
- Ctrough ([1]; 30 mg/kg BID): 716 nM
- Caverage ([1]; 60 mg/kg QD): 6909 nM
- Ctrough ([1]; 60 mg/kg QD): 26 nM
- Caverage ([1]; 100 mg/kg BID): 20321 nM
- Ctrough ([1]; 100 mg/kg BID): 2106 nM
- EC50 (A3 [2]; agonist): > 12.5 µM
- IC50 (A3 [2]; antagonist): > 12.5 µM
- IC50 (A3 [3]): > 12.5 µM
